Laboratory results: patent publication US12172975B2, “1H-indazole carboxamides as receptor-interacting protein kinase 1 inhibitors (RIPK1)” (BRISTOL-MYERS SQUIBB COMPANY, priority 2018, dated 2024)
Where a name gives a salt, the structure may show the parent alone. Read-outs that look alike come from different tables or passages of the source.

System: MLKL phosphorylation in HT29-L23 human colorectal adenocarcinoma cells
Assay: MLKL Phosphorylation High-Content Assay
Format: cell-based
Settings: 6 h, necroptosis induced with TNFα, SMAC mimetic and Z-VAD, read-out: pMLKL (IC50)
Description: MLKL Phosphorylation High-Content Assay
HT29-L23 human colorectal adenocarcinoma cells were maintained in RPMI 1640 medium containing 10% heat-inactivated FBS, 1% Penicillin-Streptomycin and 10 mM HEPES. Cells were seeded at 2,000 cells/well in 384 well tissue culture-treated microplates (Greiner #781090-3B) and incubated at 37° C. (5% CO2/95% O2) for 2 d. […] (5% CO2/95% O2). Necroptopsis was induced using a mixture of human TNFα (35 ng/mL) (Peprotech #300-01A), SMAC mimetic (from US 2015/0322111 A1) (700 nM) and Z-VAD ([…]) (BD pharmingen #51-6936). Following 6 h incubation at 37° C. (5% CO2/95% O2), the cells were fixed with 4% formaldehyde (ACROS 11969-0010) for 15 min at rt, then permeabilized with phosphate buffered saline (PBS) containing 0.2% Triton-X-100 for 10 min. MLKL phosphorylation was detected using anti-MLKL (phospho S358) antibody (Abeam #ab 187091) (1:1000 dilution in Blocking Buffer [PBS supplemented with 0.1% BSA]) with ON incubation at 4° C. After washing three times in PBS, goat anti-rabbit Alexa-488 (1:1000 dilution) (Life Technologies, A11008) and Hoechst 33342 (Life Technologies, H3570) (1:2000 dilution) in Blocking Buffer were added for 1 h at rt.
Following another three cycles of washes in PBS, the microplates were sealed, and cellular images were acquired in the Cellomics ArrayScan VTI high-content imager equipped with an X1 camera. Fluorescent images were taken using a 10× objective and the 386-23 BGRFRN_BGRFRN and 485-20 BGRFRN_BGRFRN filter sets, for nuclei and MLKL phosphorylation, respectively. The image sets were analyzed using the Compartmental Analysis Bioapplication software (Cellomics). The level of MLKL phosphorylation was quantified as MEAN_CircRingAvglntenRatio. The maximal inhibitory response was defined by the activity induced by Neels (CAS #: 852391-15-2, 6.25 μM). […] The data were fitted using the 4-parameter logistic equation to calculate the IC50 and Ymax values.

Compound	IC50 (Homo sapiens) [nM]	IC50 [nM]
[2H]C([2H])([2H])Oc1ncc(-c2ccc3c(C(=O)NC)n[nH]c3c2)cc1C(=O)N[C@H](C)CC(=O)OC(C)(C)C [Example 29, tert-butyl (3R)-3-{[2-(deutero)-methoxy-5-[3-(methylcarbam-oyl)-1H-indazol-6-yl]pyridin-3-yl]formamido}butanoate]	76	
CNC(=O)c1n[nH]c2cc(-c3cnc(OC)c(C(=O)NC(C)c4cccc(OC(F)(F)F)c4)c3)cc(F)c12 (centres unmarked) [Example 147, 4-fluoro-6-[6-methoxy-5-({1-[3-(trifluoromethoxy)-phenyl]ethyl}carbamoyl)-pyridin-3-yl]-N-methyl-1H-indazole-3-carboxamide]	110	
CNC(=O)c1[nH]nc2cc(-c3cnc(OC)c(C(=O)NC[C@@H]4C[C@H]4c4ccc(F)cc4)c3)ccc12 [Example 70, 6-[5-({[(1R,2R)-2-(4-fluoro-phenyl)cyclopropyl]methyl}-carbamoyl)-6-methoxypyridin-3-yl]-N-methyl-2H-indazole-3-carboxamide]	36	
[2H]C([2H])([2H])NC(=O)c1n[nH]c2cc(-c3cnc(OC([2H])([2H])[2H])c(C(=O)N[C@@H](C)c4cc(C(F)(F)F)ccc4F)c3)ccc12 [Example 213, 6-(5-{[(1S)-1-[2-fluoro-5-(trifluoro-methyl)phenyl]ethyl]carbamoyl}-6-(deutero)methoxypyridin-3-yl)-N-(deutero)methyl-1H-indazole-3-carboxamide]	21	
[2H]C([2H])([2H])Oc1ncc(-c2ccc3c(C(=O)NC)n[nH]c3c2)cc1C(=O)N[C@@H](c1cc(C(F)(F)F)ccc1F)C([2H])([2H])[2H] [Example 4, (R)-6-(5-((1-(2-fluoro-5-(trifluoromethyl)phenyl)ethyl-2,2,2-d3)carbamoyl)-6-(methoxy-d3)pyridin-3-yl)-N-methyl-1H-indazole-3-carboxamide, TFA]	19	
CNC(=O)c1n[nH]c2cc(-c3cnc(OC)c(C(=O)NCCC(O)c4ccc(F)c(F)c4)c3)ccc12 (centres unmarked) [Example 39, 6-(5-{[3-(3,4-difluorophenyl)-3-hydroxypropyl]carbamoyl}-6-methoxypyridin-3-yl)-N-methyl-1H-indazole-3-carboxamide]	8	
CNC(=O)c1n[nH]c2cc(-c3cnc(OC)c(C(=O)NC[C@H]4C[C@@H]4c4ccc(F)cc4)c3)ccc12 [Example 43, 6-[5-({[(1S,2S)-2-(4-fluoro-phenyl)cyclopropyl]methyl}-carbamoyl)-6-methoxypyridin-3-yl]-N-methyl-1H-indazole-3-carboxamide]		99
CNC(=O)c1n[nH]c2cc(-c3cnc(OC)c(C(=O)N[C@@H]4C[C@H]4c4ccccc4)c3)ccc12 [Example 45, 6-(6-methoxy-5-{[(1R,2S)-2-phenylcyclopropyl]carbamoyl}-pyridin-3-yl)-N-methyl-1H-indazole-3-carboxamide]	5	
CNC(=O)c1n[nH]c2cc(-c3cnc(OC)c(C(=O)NCc4ccccc4OC)c3)ccc12 [Example 58, 6-(6-methoxy-5-{[(2-methoxy-phenyl)methyl]carbamoyl}-pyridin-3-yl)-N-methyl-1H-indazole-3-carboxamide]	5.6	
CNC(=O)c1n[nH]c2cc(-c3cnc(OC)c(C(=O)NCCCOC4CCCCO4)c3)ccc12 (centres unmarked) [Example 61, 6-(6-methoxy-5-{[3-(oxan-2-yloxy)propyl]carbamoyl}-pyridin-3-yl)-N-methyl-1H-indazole-3-carboxamide]	28	
CNC(=O)c1n[nH]c2cc(-c3cnc(OC)c(C(=O)NCc4cc(F)cc(F)c4OC)c3)ccc12 [Example 89, 6-(5-{[(3,5-difluoro-2-methoxy-phenyl)methyl]carbamoyl}-6-methoxy-pyridin-3-yl)-N-methyl-1H-indazole-3-carbox-amide]		85
CNC(=O)c1n[nH]c2cc(-c3cnc(OC)c(C(=O)NCCS(=O)(=O)Nc4ccccc4)c3)ccc12 [Example 47, 6-(6-methoxy-5-{[2-(phenyl-sulfamoyl)ethyl]carbamoyl}-pyridin-3-yl)-N-methyl-1H-indazole-3-carboxamide]	38	
[2H]C([2H])([2H])Oc1ncc(-c2ccc3c(C(=O)NC)n[nH]c3c2)cc1C(=O)N[C@@H](c1cc(OC(F)(F)F)ccc1F)C([2H])([2H])[2H] [Example 9, (R)-6-(5-((1-(2-fluoro-5-(trifluoromethoxy)phenyl)ethyl-2,2,2-d3)carbamoyl)-6-(methoxy-d3)pyridin-3-yl)-N-methyl-1H-indazole-3-carboxamide, TFA]	22	
CNC(=O)c1n[nH]c2cc(-c3cnc(OC)c(C(=O)NCCC(C)c4ccc(F)cc4)c3)ccc12 (centres unmarked) [Example 41, 6-(5-{[3-(4-fluorophenyl)-butyl]carbamoyl}-6-methoxy-pyridin-3-yl)-N-methyl-1H-indazole-3-carboxamide]	0.6	
CNC(=O)c1n[nH]c2cc(-c3cnc(OC)c(C(=O)NCC4CC4c4cccc(F)c4)c3)ccc12 (centres unmarked) [Example 49, 6-[5-({[2-(3-fluorophenyl)-cyclopropyl]methyl}carbamoyl)-6-methoxypyridin-3-yl]-N-methyl-1H-indazole-3-carbox-amide]		21
COc1ncc(-c2ccc3c(C(=O)NC4CC4)n[nH]c3c2)cc1C(=O)NCc1ccccc1OC(F)(F)F [Example 174, N-cyclopropyl-6-[6-methoxy-5-({[2-(trifluoromethoxy)phenyl]-methyl}carbamoyl)pyridin-3-yl]-1H-indazole-3-carboxamide]	14	
COc1ncc(-c2ccc3c(C(=O)N[C@H](C)C4CC4)n[nH]c3c2)cc1C(=O)NCc1ccccc1OC(F)(F)F [Example 171, N-[(1R)-1-cyclopropylethyl]-6-[6-methoxy-5-({[2-(trifluoro-methoxy)phenyl]methyl}-carbamoyl)pyridin-3-yl]-1H-indazole-3-carboxamide]	120	
CNC(=O)c1n[nH]c2cc(-c3cnc(OC)c(C(=O)N[C@H]4CCN(C(=O)OC(C)(C)C)C4)c3)ccc12 [Example 136, tert-butyl (3S)-3-{2-methoxy-5-[3-(methylcarbamoyl)-1H-indazol-6-yl]pyridine-3-amido}-pyrrolidine-1-carboxylate]	480	
CNC(=O)c1n[nH]c2cc(-c3cnc(OC)c(C(=O)NCC(C)(C)C(=O)OC(C)(C)C)c3)cc(F)c12 [Example 144, tert-butyl 3-({5-[4-fluoro-3-(methylcarbamoyl)-1H-indazol-6-yl]-2-methoxy-pyridin-3-yl}formamido)-2,2-dimethylpropanoate]	100	
CNC(=O)c1n[nH]c2cc(-c3cnc(OC)c(C(=O)N[C@@H](C)c4cc(OC(F)(F)F)ccc4F)c3)ccc12 [Example 222]		14
[2H]C([2H])([2H])Oc1ncc(-c2ccc3c(C(=O)NC)n[nH]c3c2)cc1C(=O)NC(C)c1ccccc1OC(F)(F)F (single isomer, unassigned) [Example 15, 6-(6-methoxyd3-5-((1-(2-(trifluoromethoxy)phenyl)ethyl)carbamoyl)pyridin-3-yl)-N-methyl-1H-indazole-3-carboxamide]	3.4	
[2H]C([2H])([2H])Oc1ncc(-c2ccc3c(C(=O)NC)n[nH]c3c2)cc1C(=O)N[C@H](C)c1cc(OC(F)(F)F)ccc1F [Example 30, 6-(5-{[(1R)-1-[2-fluoro-5-(tri-fluoromethoxy)phenyl]ethyl]-carbamoyl}-6-(deutero)methoxy-pyridin-3-yl)-N-methyl-1H-indazole-3-carboxamide]	48	
COc1ncc(-c2ccc3c(C(=O)NCC(F)(F)F)n[nH]c3c2)cc1C(=O)NCc1ccccc1OC(F)(F)F [Example 178]	120	
CNC(=O)c1n[nH]c2cc(-c3cnc(OC)c(C(=O)NCC4CC4c4cccc(F)c4)c3)ccc12 (centres unmarked) [Example 42, 6-[5-({[2-(3-fluorophenyl)cyclo-propyl]methyl}carbamoyl)-6-methoxypyridin-3-yl]-N-methyl-1H-indazole-3-carboxamide]	88	
CNC(=O)c1n[nH]c2cc(-c3cnc(OC)c(C(=O)NCCC(O)c4ccc(F)cc4)c3)ccc12 (centres unmarked) [Example 40, 6-(5-{[3-(4-fluorophenyl)-3-hydroxypropyl]carbamoyl}-6-methoxypyridin-3-yl)-N-methyl-1H-indazole-3-carboxamide]	5.7	
CNC(=O)c1n[nH]c2cc(-c3cnc(OC)c(C(=O)NCC4CC4c4cccc(F)c4)c3)ccc12 (centres unmarked) [Example 48, 6-[5-({[2-(3-fluorophenyl)-cyclopropyl]methyl}carbamoyl)-6-methoxypyridin-3-yl]-N-methyl-1H-indazole-3-carbox-amide]		176
